Test: Waters XBridge C18, 0.2 mL/min; A: water + 0.1% formic acid; B: methanol + 0.1% formic acid; gradient (min/%B) 0/10 4/50 17/95 25/95
Settings: stereoisomer not certain

SMILES	LC retention time [min]
COC=C(C(=O)OC)c1ccccc1Oc1cc(Oc2ccccc2C#N)ncn1	11
CC(C)N1C(=O)c2ccccc2NS1(=O)=O	8.9
COc1ccc(CN2CCNCC2)c(OC)c1OC	3.5
CN(C(=O)COc1nc2ccccc2s1)c1ccccc1	13
c1ccc2n[nH]nc2c1	5.8
Cc1cc(NS(=O)(=O)c2ccc(N)cc2)no1	5.7
O=P(c1ccccc1)(c1ccccc1)c1ccccc1	11
Nc1ccc(S(=O)(=O)Nc2ccccn2)cc1	4.4
CC(C)OC(=O)C(C(=O)OC(C)C)=C1SCCS1	13
CN=C(NC#N)NCCSCc1nc[nH]c1C	3.6
Cc1cccc2sc3nncn3c12	7.3
NC(=O)N1c2ccccc2C=Cc2ccccc21	9.3
CC(C)OP(=O)(OC(C)C)SCc1ccccc1	14
COc1cccc(C2(O)CCCCC2CN(C)C)c1 (stereo not drawn)	5.7
Cc1cc(C)nc(NS(=O)(=O)c2ccc(N)cc2)n1	5.2
Cc1cc(=O)n(-c2ccccc2)n1C	5.9
COc1ccc(C(CN(C)C)C2(O)CCCCC2)cc1 (stereo not drawn)	6.9
Cc1cccc2n[nH]nc12	7.2
COCC(=O)N(c1c(C)cccc1C)C(C)C(=O)OC (stereo not drawn)	10
COC(=O)Nc1nc2ccccc2[nH]1	4.7
Nc1ccc(S(=O)(=O)Nc2nccs2)cc1	4.2

The next lines start with the values.

LC retention time [min]	SMILES
8	NC(=O)N1c2ccccc2CC(=O)c2ccccc21
4.6	CCN1CCCC1CNC(=O)c1cc(S(=O)(=O)CC)c(N)cc1OC (stereo not drawn)
5.2	CCN(CC)CC(=O)Nc1c(C)cccc1C
7.2	CC(C)NCC(O)COc1cccc2ccccc12 (stereo not drawn)
7.9	O=C(O)c1ccc(-c2ccccc2-c2nn[nH]n2)cc1
12	CCCCC(=O)N(Cc1ccc(-c2ccccc2-c2nn[nH]n2)cc1)C(C(=O)O)C(C)C (stereo not drawn)
8.6	CC(C)(C(=O)O)c1ccc(C(O)CCCN2CCC(C(O)(c3ccccc3)c3ccccc3)CC2)cc1 (stereo not drawn)
5.6	CNC(=C[N+](=O)[O-])NCCSCc1ccc(CN(C)C)o1
4.7	COc1cc(Cc2cnc(N)nc2N)cc(OC)c1OC
10	CCN(CC)C(=O)c1cccc(C)c1
6.7	CC(C)NCC(O)COc1ccc(COCCOC(C)C)cc1 (stereo not drawn)
11	CCCCC1=NC2(CCCC2)C(=O)N1Cc1ccc(-c2ccccc2-c2nn[nH]n2)cc1
3.5	CC(C)NCC(O)COc1ccc(CC(N)=O)cc1 (stereo not drawn)
4.7	CC(C)NCC(O)COc1ccc(CC(=O)O)cc1 (stereo not drawn)
16	Cc1cccc(Nc2ccccc2C(=O)O)c1C
12	COc1ccc2cc(C(C)C(=O)O)ccc2c1 (stereo not drawn)
4.7	CCCC1CC(C(=O)NC(C(C)O)C2OC(SC)C(O)C(O)C2O)N(C)C1 (stereo not drawn)
7.4	CN(C)CCOC(c1ccccc1)c1ccccc1
9.9	CCC(C)OC(=O)N1CCCCC1CCO (stereo not drawn)
1.2	CN(C)C(=N)N=C(N)N
10	CCC1OC(=O)C(C)C(OC2CC(C)(OC)C(O)C(C)O2)C(C)C(OC2OC(C)CC(N(C)C)C2O)C(C)(O)CC(C)C(=NOCOCCOC)C(C)C(O)C1(C)O (stereo not drawn)
1.2	CNC(=C[N+](=O)[O-])NCCS(=O)Cc1ccc(CN(C)C)o1 (stereo not drawn)
